In experiment [1] the target is T1, TRAF2 binding to the cytoplasmic domain of RANK (Homo sapiens, UniProt Q12933).
T1 construct: expressed in transfected cells; host or cells: human 293 cells (TRAF lysate); The GST-RANK fusion was purified as previously described
T1 sequence (Q12933 1-501): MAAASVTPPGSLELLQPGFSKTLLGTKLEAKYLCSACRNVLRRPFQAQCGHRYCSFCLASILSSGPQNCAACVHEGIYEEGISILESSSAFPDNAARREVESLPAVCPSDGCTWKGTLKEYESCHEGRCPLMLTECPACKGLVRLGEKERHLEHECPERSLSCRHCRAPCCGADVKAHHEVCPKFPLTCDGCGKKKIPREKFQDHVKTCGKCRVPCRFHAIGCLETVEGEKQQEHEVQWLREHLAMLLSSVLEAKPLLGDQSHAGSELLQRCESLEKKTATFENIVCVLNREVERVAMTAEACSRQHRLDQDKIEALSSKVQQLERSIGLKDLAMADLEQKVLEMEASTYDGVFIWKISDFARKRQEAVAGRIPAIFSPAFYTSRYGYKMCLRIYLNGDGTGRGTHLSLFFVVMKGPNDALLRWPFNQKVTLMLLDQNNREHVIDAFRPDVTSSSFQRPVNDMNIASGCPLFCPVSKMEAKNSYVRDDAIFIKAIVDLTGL
The experiment in a line: Competitive GST-pull down assay, TRAF2 binding to RANK cytoplasmic domain. The conditions noted are these: 100 μM peptide, FLAG-TRAF2 293 cell extract (FIG. 4C). How it is done: Cellular extracts from human 293 cells transfected with either FLAG-TRAF2, -TRAF5, or -TRAF6 were mixed with GST or GST-RANKed in the absence or presence of 100 μM of the indicated peptides. A GST-pull down assay was performed as described below. The bound TRAFs were visualized by immunoblotting with anti-FLAG antibodies.
Equivalent amounts of GST or GST-RANK cytoplasmic domain (GST-RANKed) fusion protein attached to 20 μl of glutathione agarose beads were mixed with lysates (50 μg) from 293 cells programmed to express the epitope-tagged TRAF protein and the indicated peptides in binding buffer (20 mM TRIS, pH 8, 150 mM NaCl, 1 mM DTT, 2 mM EDTA, and 0.1% NP-40) and allowed to rotate for 1 h at 4° C. The beads were collected by centrifugation, washed three times in binding buffer, and then washed once in low-salt buffer (20 mM TRIS, pH 8, 50 mM NaCl, and 1 mM DTT). Bound proteins were eluted with addition of SDS-sample buffer and boiled. The eluted proteins were subjected to 7.5% SDS-PAGE and western blot analysis was performed with anti-FLAG antibodies.
The cytoplasmic domain of RANK interacts with many TRAF molecules, including TRAF1, 2, 3, 5, and 6 (7-9, 11, 12). While TRAF1, 2, 3, and 5 interact with the c-terminal tail of receptor activator of NF-κB, TRAF6 interacts with a membrane proximal region of the cytoplasmic domain of the receptor activator of NF-κB. […]

Experiment [2] has as its system bone marrow-derived mouse monocytes. The experiment in a line: RANKL and M-CSF-mediated osteoclast differentiation in bone marrow-derived mouse monocytes (TRAP staining). The experiment is classed as cell-based. How it is done: After 6-7 days, the cells were fixed and stained for TRAP. The numbers of multi-nucleated, TRAP positive osteoclasts were counted.
Mouse-derived monocytes were plated in 48-well plates and costimulated as in FIG. 3A with murine M-CSF (10 ng/ml) and RANKL (30 ng/ml) in the absence (left panel) or presence of the indicated peptides. After 6-7 days, the cells were fixed and stained for TRAP. A representative field from each well was taken at a magnification of 10×.
Primary bone marrow monocytes (BM) or RAW264.7 cells were cultured in 48-well dishes at a density of 1×10^5 cells/well or 2×10^3 cells/well, and then treated with the indicated factors at the beginning of the culture and during a medium change on day 3. Osteoclast formation was assessed by counting the total number of multi-nucleated (>3 nuclei), TRAP-positive cells present per well between day 7 and 10 (BM) or on day 5 (RAW264.7) (30).
To further support the results obtained from the RAW264.7 cell line, the ability of these peptides to inhibit RANKL-mediated osteoclast differentiation in primary mouse-derived monocytes was tested. Costimulation of bone marrow-derived monocytes with RANKL and M-CSF cause osteoclast differentiation after 7-10 days, as determined by staining multi-nucleated, TRAP positive osteoclasts (30). Similar to the results with RAW264.7 cells, both L-T6DP-1 and L-T6DP-2 inhibited the development of TRAP positive osteoclast in a dose-dependent manner and L-T6DP-1 was much more efficient (FIGS. 3A and 3B).

For another experiment, the system named is NF-κB. The experiment in a line: RANKL-induced NF-κB activation in RAW264.7 cells (gel mobility shift assay). To be noted: peptide pre-treatment 5 h, RANKL 10 nM 15 min (FIG. 4A). The experiment is classed as cell-based, mouse. How it is done: RAW264.7 cells were plated in 6-well plates and treated with the indicated peptides for 5 h, then treated with RANKL (10 nM) for 15 mm. Nuclear and cytoplasmic extracts were prepared and a gel mobility shift assays was performed with 8 μg of nuclear extracts as described below.
Nuclear extracts were prepared from transfected cells essentially as described (34). Equivalent amounts of nuclear protein were used in an EMSA reaction with ^32P-labeled NF-κB oligonucleotide from HIV-LTR as described (34). NF-κB activation was quantitated using a PhosphoImager and Imagequant Software.
A mutant form of the receptor activator of NF-κB which contains only the TRAF6 binding domain is sufficient to activate NF-κB (8), and a dominant negative TRAF6 inhibits RANK-mediated NF-κB activation in 293 cells (9). To investigate the effect of the TRAF6 binding peptides on RANKL-induced NF-κB activation, NF-κB activation was examined in RAW264.7 cells that activated NF-κB when stimulated with RANKL (37). RANKL-stimulated RAW264.7 cells activated NF-κB as indicated by a gel mobility shift assay (FIG. 4A).

This is an account of results in US6998383B2, “Inhibitors of receptor activator of NF-κB and uses thereof” (Research Development Corporation, priority 2001, dated 2006).

For the substance “L-T6DP-1: Kaposi fibroblast growth factor signal sequence hydrophobic domain attached to murine RANK peptide containing the known TRAF6 binding domain (AAVALLPAVLLALLAPRKIPTEDEYTDRPSQPST; PEPTIDE Peptide L-T6Bp-1)”, in experiment [1], the “TRAF2 binding to the cytoplasmic domain of RANK” value is “neither L-T6DP-1 nor L-T6DP-2 inhibited”. Moreover, the “development of TRAP positive osteoclasts” value in experiment [2] (M-CSF 10 ng/ml and RANKL 30 ng/ml (FIGS. 3A, 3B)) is on record as “inhibited”. In experiment [2] (M-CSF and RANKL, 30 μM peptide, cells still TRAP positive (FIG. 3B)), the multi-nucleated osteoclasts result was “multi-nucleated osteoclast were not observed”. Also, in experiment [2] (M-CSF and RANKL, 100 μM peptide (FIG. 3B)), the osteoclasts entry is given as “no osteoclasts were observed”. In addition, the “RANKL-induced NF-κB activation” value in the experiment with NF-κB is recorded as “suppressed in a dose-dependent manner”.
